In series [1] the target is Aldehyde dehydrogenase, mitochondrial (Mesocricetus auratus). Description: Inhibition of hamster liver aldehyde dehydrogenase ALDH-2.
In series [2] the target is Monoamine oxidase (Mesocricetus auratus).
In series [3] the test system is Monoamine oxidase (Mesocricetus auratus). Description: Inhibition of hamster liver mitochondrial monoamine oxidase MAO.
Series [4] deals with Aldehyde dehydrogenase, mitochondrial (Mesocricetus auratus). Put plainly: Inhibition of hamster liver aldehyde dehydrogenase ALDH-2; No inhibition uM.

Regarding `O=c1c(-c2ccc(O)cc2)coc2cc(OCCCBr)ccc12`, the IC50 in series [1] amounted to 0.26 µM. Turning to `O=c1c(-c2ccc(O)cc2)coc2cc(OCCCCCCO)ccc12`, the IC50 in series [2] is above 9 µM.

Regarding `O=C(O)CCCCCCCOc1ccc2c(=O)c(-c3ccc(O)cc3)coc2c1`, the IC50 in series [2] came to 6.5 µM. The compound `O=c1c(-c2ccc(O)cc2)coc2cc(OCCCCBr)ccc12` came in with an IC50 in series [1] of 0.27 µM. This lies in the sub-micromolar range. The same measure, in the same setting: then `O=c1c(-c2ccc(O)cc2)coc2cc(OCCCCCCBr)ccc12`, with 0.3 µM.

`CCCCC(Oc1ccc2c(=O)c(-c3ccc(O)cc3)coc2c1)C(=O)OCC` (stereo not given): in series [2], the IC50 is on record as >> 9 uM.

Consider `NCCCCCCOc1ccc2c(=O)c(-c3ccc(O)cc3)coc2c1`, for which the IC50 in series [2] is >> 9 uM. The same measure, in the same setting: then `O=c1c(-c2ccc(O)cc2)coc2cc(OCCCCCCCCCO)ccc12`, with above 9 µM. Consider `O=C(O)COc1ccc2c(=O)c(-c3ccc(O)cc3)coc2c1`, for which the IC50 in series [2] is reported as >> 9 uM. As to `C=CCCCCOc1ccc(-c2coc3cc(OCCCCC=C)ccc3c2=O)cc1`, the NI result in series [3] and in series [4] was “No inhibition” each time.

Take `CCCCCCOc1ccc(-c2coc3cc(OCCCCCC)ccc3c2=O)cc1`: the NI result in series [3] and in series [4] was “No inhibition” in each case. With `CCOC(=O)C(C)Oc1ccc(-c2coc3cc(OC(C)C(=O)OCC)ccc3c2=O)cc1` (stereo not given), the NI entry in series [3] and in series [4] was “No inhibition” each time. In series [2], `O=C(O)CCCCCOc1ccc2c(=O)cc(-c3ccc(O)cc3)oc2c1` came in with an IC50 of 7 µM. As for `CCOC(=O)CCCCOc1ccc(-c2coc3cc(OCCCCC(=O)OCC)ccc3c2=O)cc1`, the NI entry in series [3] and in series [4] was “No inhibition” each time.

For the compound `CCOC(=O)CCCCOc1ccc2c(=O)c(-c3ccc(O)cc3)coc2c1`, the IC50 in series [2] was above 9 µM. For the compound `CC(C)Oc1ccc(-c2coc3cc(OC(C)C)ccc3c2=O)cc1`, the NI result in series [3] and in series [4] was “No inhibition” throughout. Turning to `CC(C)Oc1ccc2c(=O)c(-c3ccc(O)cc3)coc2c1`, the IC50 in series [2] turned out to be 0.2 µM. Consider `COc1cc2ccc(=O)oc2cc1OC` [SCOPARONE], for which the NI entry in series [3] and in series [4] was “No inhibition” in each case. In the case of `NCCCCOc1ccc2c(=O)c(-c3ccc(O)cc3)coc2c1`, the IC50 in series [2] was above 9 µM. `CCOC(=O)CCCCCOc1ccc2c(=O)c(-c3ccc(O)cc3)coc2c1`: the IC50 in series [2] worked out at 5.3 µM.

Regarding `C=CCCCCOc1ccc2c(=O)c(-c3ccc(O)cc3)coc2c1`, the IC50 in series [2] is 5 µM. Consider `O=c1c(-c2ccc(OCCCCCCCCCO)cc2)coc2cc(OCCCCCCCCCO)ccc12`, for which the NI entry in series [3] and in series [4] was “No inhibition” each time. Compound `O=C(O)CCCCOc1ccc2c(=O)c(-c3ccc(O)cc3)coc2c1` displayed an IC50 in series [2] of 5 µM. This lies in the single-digit micromolar range.

Turning to `CCCCCCCCCCCCOc1ccc(-c2coc3cc(OCCCCCCCCCCCC)ccc3c2=O)cc1`, the NI result in series [3] and in series [4] was “No inhibition” each time. `CCOC(=O)CCCCCOc1ccc(-c2coc3cc(OCCCCCC(=O)OCC)ccc3c2=O)cc1`: the NI entry in series [3] and in series [4] was “No inhibition” each time. Regarding `CCCCCCC(Oc1ccc2c(=O)c(-c3ccc(O)cc3)coc2c1)C(=O)OCC` (stereo not given), in series [2], the IC50 is >> 9 uM.

Broadly, the IC50 is the concentration that gives 50% inhibition. Higher therefore signals weaker potency in that assay.

Source of the values: ChEMBL document CHEMBL1134620, “Synthesis of potential antidipsotropic isoflavones: inhibitors of the mitochondrial monoamine oxidase-aldehyde dehydrogenase pathway” (J Med Chem, 2001).
